Source: patent US10640534B2 (Agios Pharmaceuticals, Inc., priority 2012, dated 2020)

How the values were obtained:
U87MG cells = experiment: Cellular assay, inhibition of 2-HG production in U87MG cells; format: cell-based
Summary of the method: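 HT1080 or U87MG cells (U87MG kept with 500 ug/mL G418) seeded at 5000 cells/well and treated with compound at 0.2% final DMSO. Incubated 48 h at 37 °C. 2-HG inhibition determined by LC-MS. Viability read by CellTiter-Glo luminescence at 72 h post-dose.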

HT1080 cells = experiment: Cellular assay, inhibition of 2-HG production in HT1080 cells; format: cell-based
Description: Cells (HT1080 or U87MG) are grown in T125 flasks in DMEM containing 10% FBS, 1× penicillin/streptomycin and 500 ug/mL G418 (present in U87MG cells only). They are harvested by trypsin and seeded into 96 well white bottom plates at a density of 5000 cell/well in 100 ul/well in DMEM with 10% FBS. […] Cells are incubated overnight at 37° C. in 5% CO2. The next day test compounds are made up at 2× the final concentration and 100 ul are added to each cell well. The final concentration of DMSO is 0.2% and the DMSO control wells are plated in row G. The plates are then placed in the incubator for 48 hours. […] The cell plate is placed back in the incubator for another 24 hours. At 72 hours post compound addition, 10 mL/plate of Promega Cell Titer Glo reagent is thawed and mixed. The cell plate is removed from the incubator and allowed to equilibrate to room temperature. Then 100 ul of Promega Cell Titer Glo reagent is added to each well of media. The cell plate is then placed on an orbital shaker for 10 minutes and then allowed to sit at room temperature for 20 minutes. The plate is then read for luminescence with an integration time of 500 ms.

[1] = inhibition of 2-HG production, U87MG cells, 48 hours
[2] = inhibition of 2-HG production, HT1080 cells, 48 hours

Compound | IC50 (U87MG cells; Homo sapiens, U-87 MG, 48 h) [nM] | IC50 (HT1080 cells; Homo sapiens, HT-1080, 48 h) [nM] | IC50 (U87MG cells; [1]) [nM] | IC50 (HT1080 cells; [2]) [nM]
O=C(NC1CC(F)(F)C1)[C@H](c1ccccc1Cl)N(C(=O)[C@@H]1COCC(=O)N1c1ncccn1)c1cccc(F)c1 [Compound 45] | 100 to 500 | 100 to 500 | – | –
(S)-tert-butyl 3-(((S)-1-(2-chlorophenyl)-2-((3,3-difluorocyclobutyl)amino)-2-oxoethyl)(3,5-difluorophenyl)carbamoyl)-5-oxopiperazine-1-carboxylate [Compound 97] | – | – | < 100 | < 100
Cc1cccnc1N1C(=O)CC[C@H]1C(=O)N(c1cccc(F)c1)[C@H](C(=O)NC1CC(F)(F)C1)c1ccccc1Cl [Compound 15] | 100 to 500 | 100 to 500 | – | –
CS(=O)(=O)c1cccc(N(C(=O)[C@@H]2CCC(=O)N2c2nccc(C#N)n2)C(C(=O)NC2CC(F)(F)C2)c2ccccc2Cl)c1 (mixture of isomers) [Compound 102, (2S)—N-(1-(2-Chlorophenyl)-2-((3,3-difluorocyclobutyl)amino)-2-oxoethyl)-1-(4-cyanopyrimidin-2-yl)-N-(3-(methylsulfonyl)phenyl)-5-oxopyrrolidine-2-carboxamide] | 100 to 500 | < 100 | – | –
O=C(NC1CC(F)(F)C1)[C@H](c1ccccc1Cl)N(C(=O)[C@@H]1CCC(=O)N1c1cc(C(F)(F)F)ccn1)c1cccc(F)c1 [Compound 40] | 100 to 500 | 100 to 500 | – | –
(S)-1-(4-Cyanopyridin-2-yl)-N—((S)-2-(3,3-difluorocyclobutylamino)-1-(2-fluorophenyl)-2-oxoethyl)-N-(3,5-difluorophenyl)-5-oxopyrrolidine-2-carboxamide [Compound 208] | – | – | < 100 | < 100
(2S)—N-(1-(2-Chlorophenyl)-2-((3,3-difluorocyclobutyl)amino)-2-oxoethyl)-1-(4-cyanopyridin-2-yl)-N-(3-fluoro-5-(methylsulfonyl)phenyl)-5-oxopyrrolidine-2-carboxamide [Compound 110] | – | – | < 100 | < 100
COc1cccnc1N1C(=O)CC[C@H]1C(=O)N(c1cccc(F)c1)[C@H](C(=O)NC1CC(F)(F)C1)c1ccccc1Cl [Compound 17] | 1000 to 2000 | 500 to 1000 | – | –
Cc1cccc(N2C(=O)CC[C@H]2C(=O)N(c2cccc(F)c2)[C@H](C(=O)NC2CC(F)(F)C2)c2ccccc2Cl)n1 [Compound 28] | – | < 100 | – | –
O=C(NC1CCCCC1)[C@@H](c1ccccc1Cl)N(C(=O)[C@@H]1CCC(=O)N1c1ncccn1)c1cccc(F)c1 [Compound 6] | – | 100 to 500 | – | –
O=C(NC1CCC(F)(F)CC1)[C@@H](c1ccccc1Cl)N(C(=O)[C@@H]1CCC(=O)N1c1ncccn1)c1cccc(F)c1 [Compound 3, (S)—N—((R)-1-(2-Chlorophenyl)-2-((4,4-difluorocyclohexyl)amino)-2-oxoethyl)-N-(3-fluorophenyl)-5-oxo-1-(pyrimidin-2-yl)pyrrolidine-2-carboxamide] | – | 100 to 500 | – | –
O=C(NC1CC(F)(F)C1)[C@H](c1ccccc1Cl)N(C(=O)[C@@H]1CCC(=O)N1c1ccc(Cl)cn1)c1cccc(F)c1 [Compound 48] | 100 to 500 | 100 to 500 | – | –
O=C(NC1CC(F)(F)C1)[C@H](c1ccccc1Cl)N(C(=O)[C@@H]1CCC(=O)N1c1nccc2ccccc12)c1cccc(F)c1 [Compound 16] | 500 to 1000 | 100 to 500 | – | –

Second part, the compound after the results:

IC50 (U87MG cells; Homo sapiens, U-87 MG, 48 h) [nM] | IC50 (HT1080 cells; Homo sapiens, HT-1080, 48 h) [nM] | IC50 (U87MG cells; [1]) [nM] | IC50 (HT1080 cells; [2]) [nM] | Compound
100 to 500 | 100 to 500 | – | – | O=C(NC1CC(F)C1)[C@H](c1ccccc1Cl)N(C(=O)[C@@H]1CCC(=O)N1c1ncccn1)c1cccc(F)c1 (stereo partly drawn) [Compound 49]
< 100 | < 100 | – | – | CC(C)(C)c1cccc(N(C(=O)[C@@H]2CCC(=O)N2c2nccc(C#N)n2)[C@H](C(=O)NC2CC(F)(F)C2)c2ccccc2Cl)c1 [Compound 165, (S)—N-(3-(tert-Butyl)phenyl)-N—((S)-1-(2-chlorophenyl)-2-((3,3-difluorocyclobutyl)amino)-2-oxoethyl)-1-(4-cyanopyrimidin-2-yl)-5-oxopyrrolidine-2-carboxamide]
< 100 | < 100 | – | – | N#Cc1ccnc(N2C(=O)CC[C@H]2C(=O)N(c2cccc(-c3cn[nH]c3)c2)[C@H](C(=O)NC2CC(F)(F)C2)c2ccccc2Cl)c1 (single isomer, unassigned) [Compound 200]
< 100 | 100 to 500 | – | – | N#Cc1cccc(N(C(=O)[C@@H]2CCC(=O)N2c2nccc(C#N)n2)[C@H](C(=O)NC2CCC(F)(F)CC2)c2ccccc2Cl)c1 [Compound 178, (S)—N—((S)-1-(2-Chlorophenyl)-2-((4,4-difluorocyclohexyl)amino)-2-oxoethyl)-N-(3-cyanophenyl)-1-(4-cyanopyrimidin-2-yl)-5-oxopyrrolidine-2-carboxamide]
< 100 | < 100 | – | – | N#Cc1ccnc(N2C(=O)CC[C@H]2C(=O)N(c2cccc(OC3CC3)c2)C(C(=O)NC2CC(F)(F)C2)c2ccccc2Cl)n1 (stereo partly drawn) [Compound 192, (2S)—N-(1-(2-Chlorophenyl)-2-((3,3-difluorocyclobutyl)amino)-2-oxoethyl)-1-(4-cyanopyrimidin-2-yl)-N-(3-cyclopropoxyphenyl)-5-oxopyrrolidine-2-carboxamide]
< 100 | < 100 | – | – | O=C(NC1CCC(F)(F)C1)C(c1ccccc1Cl)N(C(=O)[C@@H]1CCC(=O)N1c1ncccn1)c1cccc(F)c1 (mixture of isomers) [Compound 73, (2S)—N-(1-(2-Chlorophenyl)-2-((3,3-difluorocyclopentyl)amino)-2-oxoethyl)-N-(3-fluorophenyl)-5-oxo-1-(pyrimidin-2-yl)pyrrolidine-2-carboxamide]
< 100 | < 100 | – | – | N#Cc1cncc(N(C(=O)[C@@H]2CCC(=O)N2c2cc(C#N)ccn2)[C@H](C(=O)NC2CC(F)(F)C2)c2ccccc2)c1 [Compound 212]
< 100 | < 100 | – | – | N#Cc1ccnc(N2C(=O)CC[C@H]2C(=O)N(c2cccc(F)c2)[C@H](C(=O)NC2CC(F)(F)C2)c2c(Cl)cccc2Cl)c1 (single isomer, unassigned) [Compound 63]
< 100 | – | – | – | N#Cc1cnc(N2C(=O)CC[C@H]2C(=O)N(c2cc(F)cc(F)c2)[C@H](C(=O)NC2CC(F)(F)C2)c2ccccc2Cl)o1 [Compound 162, (S)—N—((S)-1-(2-chlorophenyl)-2-((3,3-difluorocyclobutyl)amino)-2-oxoethyl)-1-(5-cyanooxazol-2-yl)-N-(3,5-difluorophenyl)-5-oxopyrrolidine-2-carboxamide]
< 100 | – | – | – | N#Cc1ccnc(N2C(=O)CC[C@H]2C(=O)N(c2cccc(CCO)c2)[C@H](C(=O)NC2CC(F)(F)C2)c2ccccc2Cl)c1 [Compound 160, (S)—N—((S)-1-(2-Chlorophenyl)-2-((3,3-difluorocyclobutyl)amino)-2-oxoethyl)-1-(4-cyanopyridin-2-yl)-N-(3-(2-hydroxyethyl)phenyl)-5-oxopyrrolidine-2-carboxamide]
< 100 | – | – | – | CS(=O)(=O)Nc1cccc(N(C(=O)[C@@H]2CCC(=O)N2c2cc(C#N)ccn2)[C@H](C(=O)NC2CC(F)(F)C2)c2ccccc2Cl)c1 [Compound 159, (S)—N—((S)-1-(2-Chlorophenyl)-2-(3,3-difluorocyclobutylamino)-2-oxoethyl)-1-(4-cyanopyridin-2-yl)-N-(3-(methylsulfonamido)phenyl)-5-oxopyrrolidine-2-carboxamide]
< 100 | – | – | – | N#Cc1ccnc(N2C(=O)[C@H](O)C[C@H]2C(=O)N(c2cccc(F)c2)[C@H](C(=O)NC2CC(F)(F)C2)c2ccccc2Cl)c1 [Compound 113, (2S,4R)—N—((S)-1-(2-Chlorophenyl)-2-(3,3-difluorocyclobutylamino)-2-oxoethyl)-1-(4-cyanopyridin-2-yl)-N-(3-fluorophenyl)-4-hydroxy-5-oxopyrrolidine-2-carboxamide]
< 100 | – | – | – | N#Cc1ccnc(N2C(=O)OCC[C@H]2C(=O)N(c2cc(F)cc(F)c2)[C@H](C(=O)NC2CCC(F)(F)CC2)c2ccccc2Cl)n1 [Compound 144, (S)—N—((S)-1-(2-Chlorophenyl)-2-((4,4-difluorocyclohexyl)amino)-2-oxoethyl)-3-(4-cyanopyrimidin-2-yl)-N-(3,5-difluorophenyl)-2-oxo-1,3-oxazinane-4-carboxamide]
< 100 | – | – | – | N#Cc1ccnc(N2C(=O)CC[C@H]2C(=O)N(c2cccc(OC(F)F)c2)[C@H](C(=O)NC2CC(F)(F)C2)c2ccccc2Cl)n1 [Compound 194, (S)—N—((S)-1-(2-Chlorophenyl)-2-((3,3-difluorocyclobutyl)amino)-2-oxoethyl)-1-(4-cyanopyrimidin-2-yl)-N-(3-(difluoromethoxy)phenyl)-5-oxopyrrolidine-2-carboxamide]
